Data: ChEMBL document CHEMBL3217495, “Interaction of long telomeric DNAs with macrocyclic hexaoxazole as a G-quadruplex ligand” (Medchemcomm, 2013)
The source made the active and inactive calls. The calls are words filed in the database; no cut-off is given here.

Key:
[1] = Binding affinity to telo72 G-quadruplex DNA (unknown origin) assessed as change of topology from hybrid-type to anti-parallel form by CD spectrometry in presence of KCl
[2] = Binding affinity to telo96 G-quadruplex DNA (unknown origin) assessed as change of topology from hybrid-type to anti-parallel form by CD spectrometry in presence of KCl
[3] = Binding affinity to telo48 G-quadruplex DNA (unknown origin) assessed as change of topology from hybrid-type to anti-parallel form by CD spectrometry in presence of KCl
[4] = Stabilization of telo96 G-quadruplex DNA (unknown origin) assessed as melting temperature at 16 eq. by spectropolarimeter analysis in presence of KCl (reference value: 55 degC)
[5] = Binding affinity to telo48 G-quadruplex DNA (unknown origin) assessed as appearance of new bands with longer migration distances after 14 hrs by electrophoresis mobility shift assay
[6] = Binding affinity to telo24 G-quadruplex DNA (unknown origin) assessed as change of topology from hybrid-type to anti-parallel form by CD spectrometry in presence of KCl
[7] = Stabilization of telo48 G-quadruplex DNA (unknown origin) assessed as melting temperature at 8 eq. by spectropolarimeter analysis in presence of KCl (Rvb= 57 degC)
[8] = Stabilization of telo24 G-quadruplex DNA (unknown origin) assessed as melting temperature at 4 eq. by spectropolarimeter analysis in presence of KCl (reference value: 59 degC)
[9] = Binding affinity to telo96 G-quadruplex DNA (unknown origin) assessed as appearance of new bands with longer migration distances after 14 hrs by electrophoresis mobility shift assay
[10] = Binding affinity to telo24 G-quadruplex DNA (unknown origin) assessed as compound:telo24 complex formation at ratio of 2:1 after 14 hrs by electrophoresis mobility shift assay
[11] = Binding affinity to telo24 G-quadruplex DNA (unknown origin) assessed as appearance of new bands with longer migration distances after 14 hrs by electrophoresis mobility shift assay
[12] = Stabilization of telo72 G-quadruplex DNA (unknown origin) assessed as melting temperature at 12 eq. by spectropolarimeter analysis in presence of KCl (reference value: 55 degC)
[13] = Binding affinity to telo72 G-quadruplex DNA (unknown origin) assessed as appearance of new bands with longer migration distances after 14 hrs by electrophoresis mobility shift assay

- Activity [1]: Active
- Activity [2]: Active
- Activity [3]: Active
- Tm [4]: 70 °C
- Activity [5]: Active
- Activity [6]: Active
- Tm [7]: 76 °C
- Tm [8]: 75 °C
- Activity [9]: Active
- Activity [10]: Active
- Activity [11]: Active
- Tm [12]: 73 °C
- Activity [13]: Active
Compound: NCCCC[C@@H]1NC(=O)c2coc(n2)-c2coc(n2)-c2coc(n2)[C@H](CCCCN)NC(=O)c2coc(n2)-c2coc(n2)-c2coc1n2
